We go through 1 compound from patent US7294755B1 (priority 1997, dated 2007).

Where “and” joins values, the source holds several entries; their conditions need not be identical. Equal values may be shown once.

Data set [1] relates to male germ cells of the testis. As to the kind of experiment: Depopulating the recipient testis of male germ cells, histologic analysis. It counts as in vivo, C57BL/6J mice. The note with it: two months after treatment. The procedure: Comparison of Depopulating Treatments. Eight-week-old C57BL/6J mice were allowed to acclimatize for a few days and then were assigned to one of the following three treatment groups. They received: (1) 400 Rad gamma irradiation; (2)4 μg/g body weight of busulfan (1,4-butanediol dimethanesulphonate; Myleran, Glaxo Wellcome); or (3) a combination treatment of busulfan (4 μg/g body wt) followed one week later by 400 Rad of gamma irradiation (“busulfan/400 Rad” treatment). A fourth group of untreated C57BL/6J mice of the same age as the treatment groups was used as a control. There were 24 mice in each treatment group, and 3 mice were sacrificed at each of the following time intervals after treatment: 5 hours, 24 hours, 48 hours, 72 hours, 1 week, 2 weeks, I month and 2 months after treatment. […]
Delivery of an Alkylating Agent to Recipient Vertebrates. The male mice receiving busulfan received a dose of 4 μg busulfan per g body wt. The busulfan was first dissolved 8 mg/mL in 100% dimethyl sulfoxide (DMSO) then, immediately before injection, was diluted 1:1 in phosphate buffered saline, pH 7.4. The mice were injected with the diluted busulfan solution intraperitoneally. Irradiation Treatment of Recipient Vertebrates. For the gamma irradiation treatment, mice were anesthetized with 0.017 mL/g body wt. of 2.5% Avertin. Gamma irradiation was specifically directed to the testis in the following manner. Each mouse was placed in a lead chamber with only the testis and lower abdomen exposed through elliptical holes to the irradiating source (^137Cs Gammacell 40 irradiator [Nordion]). There were six aligned holes in the floor and roof of the chamber through which the gamma radiation passed unobstructed. After irradiation the animals were allowed to recover from the anesthesia on a warm heating pad or water bed until they regained consciousness. Histology. At selected time points, mice from each treatment group were euthanized, and testicular tissues to be examined were fixed in 10% formalin in PBS, pH 7.4, at 4° C. for 24 hours. Small slits in the testis capsule were made to allow penetration of the fixative. Fixed samples were washed four times with PBS, and embedded in paraffin using a Tissue Tek-II tissue processor (MET). Sections of 8 μm thickness were cut, stained with haemotoxylin and eosin (H&E), and mounted with Aquamount (Lerner Laboratories) on glass slides with coverslips. The sections were viewed on a Zeiss or Olympic light microscope with a 40× objective lens (total magnification 400×). Quantitative Histologic Analysis. Quantitative data were collected from the testes of two animals for each of the treatment groups at two months after treatment. (Table 2). For the control group only one mouse was used. The seminiferous tubules in a single section were counted using a 5× objective on a Zeiss light microscope (50× total magnification). Individual seminiferous tubules were examined at 400× total magnification. Seminiferous tubules were considered severely damaged if hardly any cells remained in the tubule, and the tubule consisted of a basement membrane with a single layer of cells, mostly spermatogonia, lying along the basement membrane. Moderately damaged tubules were tubules, in which some of the spermatogenic layers close to the lumen were partially sloughed off. Spermatozoan heads were counted in the tubules and averaged over the total number of tubules counted. Results of Histological Analysis. Obvious histological changes were not seen in the testis until two weeks after treatment. (Data no shown). […] A few Sertoli cell nuclei and spermatogonia were detectable in the periphery along the basement membrane. […] Some spermatids and spermatozoa were seen as well as a few spermatocytes.

Data set [2] relates to testicular cells within the seminiferous tubules. As to the kind of experiment: In vivo transduction of male germ cells using a viral vector (Example 14). Further details: species or system C57BL/6J mice. The note with it: 4 μg/gm body wt IP, 44 days prior to viral infection. The source says:
A retroviral vector was used to transduce (genetically alter or modify) male germ cells of mice in vivo. Specifically, a pseudo-typed HIV-derived viral vector (L. Naldini et al., In vivo gene delivery and stable transduction of nondividing cells by a Lentiviral vector, Science 272:263-67 [1996]), was used, as modified by Carlos Lois to express Green Flourescent Protein (GFP) instead of the LacZ reporter gene, under the transcriptional control of the CMV promoter (HR′GFP).
Recipient C57BL/6J mice were treated with busulfan 44 days prior to viral infection. C57BL/6J male mice were injected intraperitoneally with 0.1 ml busulfan at a concentration of 1 mg/ml. The dose was 4 μg busulfan/gm body wt. One pretreated mouse was anesthetized with Avertin (0.017 mls/gm body wt.), and a ventral midline incision was made and the right testis exposed.
The vas efferentia were dissected away from the fat, and ten microlitres of HIV-derived GFP vector, HR′GFP, at a titer of 1×10^9 particles/ml were injected into the seminiferous tubules of the right testis via the vas efferens of a busulfan-treated C57 BL/6J mouse. Injection was done with a quartz glass micropipette attached to a Picospritzer II. The Picospritzer was set at 80 psi and gave 1 second bursts upon manual depression of a foot pedal. […]

The next data set relates to male germ cells. The experiment in a line: In vivo transduction of male germ cells followed by natural matings, transgenic progeny by PCR and Southern blot. The arrangement: species or system C57/B1/6J mice. The note with it: IP 4 μg/gm body wt before in vivo transduction.
A further data set relates to testis germ cells. As to the kind of experiment: Busulfan depopulation of testis before microinjection (Example 15). As to conditions: IP 4 μg/g body wt. It counts as in vivo, mice. The protocol:
The method of delivery (Winston, R. M. L., Microsurgical reanastomosis of the rabbit oviduct and its functional and pathological sequelae, Brit. J. Obstet. Gynaecol. 82:513-522 ([1975]) of viral particles into a single vas efferens, and thence to the seminiferous tubules, was first optimized in several mice (FIGS. 1a-1d). The mice were treated with busulfan (Myleran: Glaxo Wellcome) 14 days before microsurgery to maximize the chance of viral particles gaining access to spermatogonia, which lie on the basement lamella of the tubules. Busulfan, an alkylating cytotoxic agent, depopulates the testis (Bucci, L. and Meistrich, M., Effects of busulfan on murine spermatogenesis: cytotoxicity, sterility, sperm abnormalities, and dominant lethal mutations, Mut. Res. 176:259-268 [1987]). […] This implies that stem cells remain viable and can repopulate the testis. Stem cell spermatogonia are known to be resistant to insults, often surviving when other germ cell types are destroyed (Huckins, C. & Oakberg, W. F., Morphological and quantitative analysis of spermatogonia in mouse testes using whole mounted seminiferous tubules. II. The irradiated testes, Anat. Rec. 192:529-42 [1978]).

Data set [3] relates to male germ cells in the testis. The note with it: mice, cited from earlier work.

With `CS(=O)(=O)OCCCCOS(C)(=O)=O` [Busulfan, 1,4-butanediol dimethanesulphonate], the “Total No. Sperm heads” value in data set [1] (in 50 tubules) is 957 and 764. In data set [1], the “Average No. sperm heads/tubule” value was 19 and 15; the “depopulation of seminiferous tubules, comparison of treatment groups” value is “damage to the spermatogenic process”. In data set [1] (one animal per line), the “Moderately damaged tubules, percent of tubules counted” value is 7% and 3%; the “No. Moderately damaged (seminiferous tubules)” value was 5 and 2; the “No. Severely damaged (seminiferous tubules)” value was 1 (1%) and 3; the “Severely damaged tubules, percent of tubules counted” value is 1 (1%) and 10%. The “mature spermatozoa in testis” value in data set [2] is given as “Very few mature spermatozoa were present”. Also, the “effect of pre-treatment on transduction of spermatogonia” value in the data set on male germ cells is “enhanced the transduction of spermatogonia”. Besides, in the data set with testis germ cells, the “elimination of germ cells from the tubules” value was “many of the spermatocytes, spermatids and spermatozoa were eliminated from the tubules”; the “recovery of testis and fertility” value was “the testis recovered three to four months afterward and fertility was restored”. In data set [3] (13 mg-40 mg/kg body wt.), the “depletion of male germ cells” value is reported as “deplete male germs cells in the testis”. Moreover, the “duration of azoospermia after treatment” value in data set [3] (doses over 30 mg/kg body weight) is given as “up to 56 days”.
